Three molecules from patent publication US20090264384A1, “INDOLE, BENZIMIDAZOLE, AND BENZOLACTAM BORONIC ACID COMPOUNDS, ANALOGS THEREOF AND METHODS OF USE THEREOF” (Nuada, Inc., priority 2004, published 2009) can be followed below.

The subject of test [1] is chronic colitis provoked by trinitrobenzene sulphonic acid (TNBS). Description: Rat model of chronic colitis provoked by TNBS over 14 days, treatment from Day 1. In kind it is in vivo. The settings on record: for macroscopic Damage Score / reduction in colon weight / reduction in colonic MPO activity / reduction in colonic TNF-α levels / reduction in colonic lesion area (% of the total area measured): Day 14; for reduction in colon weight / reduction in colonic MPO activity / reduction in colonic TNF-α levels / reduction in colonic lesion area (% of the total area measured) / attenuation of TNBS-induced fall in body weight (% change of body weight at Day −1): vs CMC group; for attenuation of TNBS-induced fall in body weight (% change of body weight at Day −1): over 14 days. The text has this:
In the chronic model of colitis, assessment of the colonic inflammation is made 14 days or longer, after the intracolonic challenge with TNBS (Boughton-Smith et al, 1988a, 1988b; Wallace et al, 1989; Rachmilewitz et al, 1989; Wallace and Keenan, 1990; Ameho et al, 1987; Sans et al, 1999; Sun et al, 2001; Maric et al, 2003; Moreels et al, 2004; Gonzalez et al, 2004). This model allows treatment with experimental agents to commence following the establishment of the colonic injury, typically 24 hours after the TNBS challenge (Galvez et al, 2000, Villegas, 2003, Gonzalez et al, 2004). The model should therefore identify the ability of the experimental compounds to accelerate the diminution of the inflammatory response and to promote healing of the colonic lesions. This model thus has relevance additional to the acute model, as the clinical correlate is the therapeutic intervention in patients with existing IBD not in remission or with flare-up, to reduce the crisis. This contrasts with the acute TNBS model where the compounds are administered one or two days prior to challenge, the clinical correlate being the use of prophylactic therapy to prevent flare-up and maintain remission in IBD patients.
In this current study, the low intracolonic challenge concentration of TNBS used in the acute studies was also used for the chronic study over a 14 day period. This concentration and timing was based on the findings from pilot studies where a range of concentrations of TNBS and treatment conditions were evaluated over a 14 day period. […].
The methods and protocol used were substantially similar to those in Example 39-40, with some differences described below.
TNBS Challenge. Male Wistar rats (average body weight, 210 g) were randomised into groups before commencement of the study. In all groups, including the non-challenged and non-treated absolute control group, food was withdrawn for 12 h before TNBS administration (i.e. overnight on Day −1), but the rats were allowed free access to drinking water.
On the morning of the day of challenge (Day 0, between 9.00 and 1 1.00 a.m.), the rats were transiently anaesthetised with ether and the TNBS solution (10 mg in 0.25 ml of 50% ethanol) was instilled approximately 6-8 cm into the colon using a soft plastic catheter inserted in the rat rectum. The rats were allowed to recover with free access to food and drinking water. At the end of the experiment, on the morning of Day 14, between 9.00 and 11.00), the colon was dissected, and the distal 8 cm photographed and immediately processed or stored appropriately for subsequent analyses.
The following primary parameters were measured in the study: macroscopic scoring of distal 8 cm of colon; myeloperoxidase levels in segments of distal 8 cm of colon; TNF-α levels in segments of distal 8 cm of colon.
In addition, the weight of the standard colonic segment was assessed as an indirect and non-specific marker of oedema. The body weight of the animals was also determined each evening of the study, starting on Day-1, and also on the morning of Day 14. The data is shown graphically as the % change from the weight on Day-1, prior to challenge.
Treatments. The TNBS challenged groups for study were: (a) Vehicle control 0.5% carboxy methyl cellulose (CMC) p.o., twice daily from Day; (b) CCI-7506 25 mg/kg, p.o., twice daily from Day 1 (50 mg/kg/day total); (c) CCI-7506 50 mg/kg, p.o., twice daily from Day 1 (100 mg/kg/day total); (d) CCI-7507 12.5 mg/kg, p.o., twice daily from Day 1 (25 mg/kg/day total); (e) CCI-7507 25 mg/kg, p.o., twice daily from Day 1(50 mg/kg/day total); […]; (g) Infliximab 3 mg/kg, single slow i.v. injection, on Day 1 and Day7.
The experimental compounds that were administered orally were given twice a day from Day 1, i.e. 24 h following TNBS administration, for the remainder of the 14 day experimental period. Infliximab was administered by slow i.v. injection of Day 1 and on Day 7. […]

A short description of test [2]: Various In Vitro Cell Biology Assays (Example 41, Tables 23-26). In kind it is cell-based. The settings on record: PBMC, 24 h, IL-1 □ secretion (h) (PBMC), LPS 1 μg/ml, 24 h; 3×10^−6 M; read-out: % Inhibition of Control Values. Here is the method: In each experiment, the respective reference compound was tested concurrently with the test compounds in order to assess the assay suitability. It was tested at several concentrations (for IC50 value determination).
The test compounds were assayed at 3×10^−6 M.
Results. The results are expressed as a percent of control values and as a percent inhibition of control values obtained in the presence of the test compounds.
The IC50 values (concentration causing a half-maximal inhibition of control values) and Hill coefficients (nH) were determined by non-linear regression analysis of the inhibition curves using Hill equation curve fitting, a summary of the data is shown in Table 26. The IC50 value for each reference compound is indicated was determined (data not shown) and was within accepted limits of the historic average ±0.5 log units.

The test system of test [3] is colitis provoked by trinitrobenzene sulphonic acid (TNBS). Kind of test: Rat model of colitis provoked by TNBS, 3 days, treatment from Day −1 (CCI-7308). Type of test: in vivo. The settings on record: for attenuation of TNBS-induced fall in body weight (% change in body weight at Day 0) / reduction in area of macroscopic colonic injury / reduction in colonic MPO activity / reduction in colon weight / reduction in colonic TNF-α levels: vs CMC group; for reduction in area of macroscopic colonic injury: 72 h after TNBS. The text has this:
In the study, colonic macroscopic injury has been assessed, as has colonic weight as a reflection of colonic oedema, along with determination of MPO activity (Bradley et al, 1982) as an index of white cell infiltration for the evaluation of tissue injury. The methods and protocol used were substantially similar to those in Example 39, with some differences described below. TNBS Challenge—Male Wistar rats (270-330 g) were randomised into groups of 10-11 before commencement of the study. The following primary parameters were measured in the study: In addition, the weight of the colonic segment was assessed as an indirect and non-specific marker of oedema. The body weight of the animals was also determined and expressed as % change from the day of challenge. Treatments. All challenged groups were dosed orally twice daily from Day −1. The groups for study were: Colon homogenates for cytokine measurements. […] Tissue homogenates were lysed for 30 min. on ice, and then centrifuged (10 min., 14, 000×g). The aliquots of the supernatant were stored at −20° C. until use (Ten Hove et al., 2001). Tumour Necrosis Factor-a Activity. The TNF-α levels were determined with quantitative TNF-α solid-phase Enzyme Linked ImmunoSorbent Assay (ELISA), which is based on the sandwich principle (HyCult biotechnology b. V;. Cat number: […] At the end of the ELISA assay, the samples were measured spectrophotometrically (Benchmark Microplate reader, Bio-Rad Lab; λ=450 nm). The samples were diluted 2 or 4 times with the sample buffer included in the kit. The TNF-α values were expressed as pg/mg protein. This commercially available kit (Hycult Biotechnology b.v. Uden, The Netherlands. Catalogue number: […]

Where [4] appears, read: 50 mg/kg/day p.o. in divided doses from Day 1.
Where [5] appears, read: 4 mg/kg/day p.o. in divided doses.
Where [6] appears, read: 20 mg/kg/day p.o. in divided doses.
Where [7] appears, read: 100 mg/kg/day p.o. in divided doses.

The structures appear in SMILES notation.

For `COc1ccc(-c2nc3ccccc3n2CCCCCB(O)O)cc1` [CCI-7507], in test [1] (25 mg/kg/day p.o. from Day 1), the “macroscopic Damage Score” value was “reduced the damage score”; the “reduction in colon weight” value is on record as “significantly reduced the colonic weight of the standard segment at both doses”; the “reduction in colonic MPO activity” value is “significant and dose-dependent fall in the elevated MPO activity at both dose levels”; the “reduction in colonic TNF-α levels” value is “caused a significant reduction in the elevated levels of TNF-α”. In addition, the “reduction in colonic lesion area (% of the total area measured)” value (“reduction … (% of the total area measured)” below) in test [1] (25 mg/kg/day p.o. from Day 1) is on record as “statistically significant for both doses”. The “attenuation of TNBS-induced fall in body weight (% change of body weight at Day −1)” value in test [1] (25 mg/kg/day p.o. in divided doses from Day 1) is “significantly different from that in the CMC challenged group (P<0.05) on Days 2, 3, 4, 8, 9 and 10 post-challenge”. In addition, in test [1] (50 mg/kg/day p.o. from Day 1), the “macroscopic Damage Score” value is given as “reduced the damage score”; the “reduction in colon weight” value is “significantly reduced the colonic weight of the standard segment at both doses”; the “reduction in colonic MPO activity” value is “significant and dose-dependent fall in the elevated MPO activity at both dose levels”; the “reduction in colonic TNF-α levels” value is recorded as “caused a significant reduction in the elevated levels of TNF-α”. Also, the “reduction … (% of the total area measured)” value in test [1] (50 mg/kg/day p.o. from Day 1) is given as “statistically significant for both doses”. For the same molecule, the “attenuation of TNBS-induced fall in body weight (% change of body weight at Day −1)” value in test [1] (setting [4]) is “significantly different form the CMC group on all days from Day 2 to 10”.
`COc1ccc(-c2nc3ccccc3n2CCCCCB(O)O)cc1` [CCI-7308]: in test [2], the inhibition at 3 µM came out at 68%. The “attenuation of TNBS-induced fall in body weight (% change in body weight at Day 0)” value in test [3] (4 mg/kg/day p.o. in divided doses b.i.d.) was “significantly different from the challenged CMC control group on Day 1”; in test [3] (20 mg/kg/day p.o. in divided doses b.i.d.), “significantly different from the CMC group on Days 1, 2 and 3”; in test [3] (100 mg/kg/day p.o. in divided doses b.i.d.), “preventing the fall in body weight on all 3 days post-challenge”. The “reduction in area of macroscopic colonic injury” value in test [3] (setting [5]) is reported as “did not reach significance”; in test [3] (setting [6]), “statistically significant”; in test [3] (setting [7]), “statistically significant”. Further, the “reduction in colonic MPO activity” value in test [3] (setting [5]), in test [3] (setting [6]) and in test [3] (setting [7]) was “significant (P<0.001) reduction in colonic MPO levels at all three dose levels” throughout. Also, the “reduction in colon weight” value in test [3] (setting [6]) and in test [3] (setting [7]) was “statistically significant” each time. For the same molecule, the “reduction in colonic TNF-α levels” value in test [3] (setting [6]) and in test [3] (setting [7]) was “achieving significance” in each case. Further, the “relative potency versus sulfasalazine in reducing macroscopic injury” value in test [3] (preliminary indication, from comparison of molecular weights) is reported as around 2.5 times.
In the case of `N#Cc1ccc2c(ccn2CCCCCB(O)O)c1` [CCI-7506], in test [1] (50 mg/kg/day p.o. from Day 1), the “macroscopic Damage Score” value is given as “reduced the damage score”, the “reduction in colon weight” value is listed as “caused a significant reduction in the colon weight”, the “reduction in colonic MPO activity” value is reported as “caused a significant fall in the elevated MPO activity” and the “reduction in colonic TNF-α levels” value is “no significant effect on the colonic TNF-α levels”. Besides, in test [1] (50 mg/kg/day p.o. from Day 1), the “reduction … (% of the total area measured)” value is given as “statistically significant for both doses”. The “attenuation of TNBS-induced fall in body weight (% change of body weight at Day −1)” value in test [1] (setting [4]) is “significantly different from those in the challenged CMC control group on Days 2 to 10 and also on Days 13 and 14”. Besides, in test [1] (100 mg/kg/day p.o. from Day 1), the “macroscopic Damage Score” value is listed as “reduced the damage score”, the “reduction in colon weight” value is on record as “caused a significant reduction in the colon weight”, the “reduction in colonic MPO activity” value is reported as “caused a significant fall in the elevated MPO activity” and the “reduction in colonic TNF-α levels” value was “did achieve significance”. Also, the “reduction … (% of the total area measured)” value in test [1] (100 mg/kg/day p.o. from Day 1) is “statistically significant for both doses”. The “attenuation of TNBS-induced fall in body weight (% change of body weight at Day −1)” value in test [1] (100 mg/kg/day p.o. in divided doses from Day 1) was “significantly different from the CMC group on Days 2, 3 and 4”.
